{"source": "patent US11807873B2", "about": "“Conversion of S-lignin compounds to useful intermediates” (Alliance for Sustainable Energy, LLC, priority 2020, dated 2023)", "molecules": {"B1": {"name": "PcaHG (PCA 3,4-dioxygenase) (Pseudomonas putida) (protein)", "chain 1": "MPAQDNSRFVIRDRNWHPKALTPDYKTSIARSPRQALVSIPQSISETTGPNFSHLGFGAHDHDLLLNFNNGGLPIGERIIVAGRVVDQYGKPVPNTLVEMWQANAGGRYRHKNDRYLAPLDPNFGGVGRCLTDSDGYYSFRTIKPGPYPWRNGPNDWRPAHIHFGISGPSIATKLITQLYFEGDPLIPMCPIVKSIANPEAVQQLIAKLDMNNANPMDCLAYRFDIVLRGQRKTHFENC", "chain 2": "PIELLPETPSQTAGPYVHIGLALEAAGNPTRDQEIWNRLAKPDAPGEHILLLGQVYDGNGHLVRDSFLEVWQADANGEYQDAYNLENAFNSFGRTATTFDAGEWTLHTVKPGVVNNAAGVPMAPHINISLFARGINIHLHTRLYFDDEAQANAKCPVLNLIEQPQRRETLIAKRCEVDGKTAYRFDIRIQGEGETVFFDF", "notes": "poly-histidine tag with TEV protease site (N, cleaved yes); made in house; host or cells: E. coli BL-21 λ(DE3)"}, "B2": {"name": "GalA (gallate 3,4-dioxygenase) (Pseudomonas putida KT2440) (protein)", "chain": "MARIIGGLAVSHTPTIGFAVDHDKQEEAAWAPIFESFEPIRTWLQQRQPDVLFYIFNDHITSFFFDHYSAFTLGVDEQYGVADEGGNPRDLPPVGGHAALSRHIGQSLMADEFDMSFFRDKPLDHGFFSPMSALLPCDESWPVQIVPLQVGVLQLPIPTARRCYKLGQALRRAIESYPEDLKVAIVATGGVSHQVHGERCGFNNPEWDAQFLDLLVNDPQRLTEMTLAEYATLGGMEGAEVITWLIMRGTLSANVERKHQSYYLPSMTGIATLLLENRDQALPAPVNERHRQHMQHQLAGAEQLEGTYPYTLERSAKGYRLNKFLHRMIEPQWRQRFLSEPEALYREAGLSEEESDLLRRRDWRGLIHYGVIFFVLEKLGAVLGVSNLDIYAAMRGQSIEDFMKTRNQQVRYSVAGKAPN"}}, "key": {"[1]": {"biological_target": "T1, VanAB (vanillate O-demethylase) (Pseudomonas putida, UniProt Q88GI6)", "T1 sequence (Q88GI6 entry or part of it)": "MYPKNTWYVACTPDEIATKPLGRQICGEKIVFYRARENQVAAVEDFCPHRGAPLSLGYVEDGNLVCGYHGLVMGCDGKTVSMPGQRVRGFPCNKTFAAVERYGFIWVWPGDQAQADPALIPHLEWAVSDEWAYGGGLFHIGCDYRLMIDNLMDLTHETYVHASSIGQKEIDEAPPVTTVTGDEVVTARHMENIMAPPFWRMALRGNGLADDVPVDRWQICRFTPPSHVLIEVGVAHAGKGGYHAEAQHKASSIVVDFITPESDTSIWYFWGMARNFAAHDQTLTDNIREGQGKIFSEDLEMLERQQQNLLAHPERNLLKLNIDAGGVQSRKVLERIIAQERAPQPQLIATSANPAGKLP", "T1 sequence (Q88GI5 entry or part of it, further chain)": "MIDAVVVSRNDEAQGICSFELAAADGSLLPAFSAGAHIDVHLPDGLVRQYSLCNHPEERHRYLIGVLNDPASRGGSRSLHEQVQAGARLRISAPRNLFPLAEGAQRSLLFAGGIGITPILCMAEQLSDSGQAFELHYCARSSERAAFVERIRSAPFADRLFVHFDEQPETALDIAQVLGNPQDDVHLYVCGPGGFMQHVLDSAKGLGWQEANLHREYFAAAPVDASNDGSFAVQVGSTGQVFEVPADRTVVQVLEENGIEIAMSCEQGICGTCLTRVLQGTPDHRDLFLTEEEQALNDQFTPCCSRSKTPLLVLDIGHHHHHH", "test": "VanAB coupling of O-demethylation to O2 consumption (HPLC-based assay)", "format": "biochemical, P. putida KT2440", "details": "quenched after ~100 μM O2 consumed; for Coupling Substrate/O2: ratio of aromatic substrate consumed:O2 consumed; for Coupling Product/O2: ratio of product produced:O2 consumed", "protocol": "The ability of VanAB to catalyze the O-demethylation of VA, SA, and 3MGA was evaluated first. Using an HPLC-based assay, the enzyme transformed VA, SA, and 3MGA to PCA, 3MGA, and GA, respectively (see FIG. 14). When reactions were quenched after ˜100 μM of O2 was consumed, the amounts of substrate consumed, and product detected, were equal to the amount of O2 consumed within error (see Table 3). […] However, in the absence of VanA, VanB consumed NADH and O2 to produce H2O2 in the presence of SA. This adventitious consumption of NADH and O2 was not observed in the presence of VA or 3MGA. Further, in reactions containing 2 μM VanB, 1 μM VanA completely outcompeted the reaction of SA with VanB.\nHPLC characterization of transformation products and flavin content: Oxygenase turnover and VanB flavin content were evaluated using a Waters 2695 Separation HPLC module (Milford, MA) equipped with a Waters 2996 photodiode array detector. VanAB reactions contained ˜1 μM VanA, ˜1 μM VanB and 200 μM substrate in air-saturated HEPES (I=0.1 M, pH 7.5). Reactions were incubated for 30 min at 25° C., quenched with glacial acetic acid (final concentration 10% (v/v)), then centrifuged and filtered (0.2 μm) to remove protein. Substrates and products were resolved using a 250×4.6 mm Luna 5 m C18(2) column (Phenomenex, Torrance, CA) and a linear gradient of 0.1% formic acid and methanol. Compound amounts were assessed using integrated peak areas at 260 nm and standard curves for each compound."}, "[2]": {"biological_target": "T2, PcaHG (PCA 3,4-dioxygenase) (Pseudomonas putida, UniProt P00436+P00437)", "T2 construct": "poly-histidine tag with TEV protease site (N, cleaved yes); made in house; host or cells: E. coli BL-21 λ(DE3)", "T2 sequence (P00437 1-239)": "B1 chain 1", "T2 sequence (P00436 2-201 limits assumed)": "B1 chain 2", "test": "PcaHG steady-state kinetics, oxygraph and spectrophotometric assays", "format": "biochemical, P. putida KT2440", "experimental": "(§4) Steady-state kinetic analyses: Kinetic assays were performed by monitoring the consumption of O2 using a Clark-type polarographic O2 electrode OXYG1 (Hansatech) connected to a circulating water bath. Assays with the exception of GalA were performed in 1 mL of air-saturated 40 mM HEPES, 80 mM NaCl (I=0.1 M, pH 7.5) at 25° C. GalA assays were performed in 40 mM MOPS, 80 mM NaCl (I=0.1 M, pH 7.0) at 30° C. The electrode was calibrated daily according to the manufacturer's instructions using air-saturated buffer and water depleted of 02 via addition of sodium hydrosulfite. Stock solutions were prepared fresh daily. The background rate of O2-consumption was recorded prior to initiating the reaction and was subtracted from the measured reaction rate. Steady-state kinetic parameters were evaluated by fitting the Michaelis-Menten equation to the data using the least-squares fitting of LEONORA.\n(§5) Stock solutions of the substrates were made in dimethylsulfoxide (DMSO). The final concentration of DMSO in the assay solutions was <1% (v/v). […] The reaction was initiated by adding 0.1 μM PcaHG."}, "[3]": {"biological_target": "GalA (gallate 3,4-dioxygenase) (Pseudomonas putida, UniProt Q88JX5)", "test": "GalA inactivation kinetic analyses during turnover", "format": "biochemical", "text": "(§1) GalA preparations had 0.5 equivalents of Fe per mol GalA. GalA cleaved GA with 3-fold higher specificity (˜9×10^5 s^−1 M^−1, see Table 3, FIG. 20) than previously reported. The partition ratio for GA was ˜1900 based on 02 consumption for given amount of GalA (see Table 3, Equation 1). […] Because high concentrations of GalA were needed to detect 3MGA-cleavage activity, cell lysates were used to investigate the inactivation of GalA by 3MGA. Importantly, the inactivation of GalA by GA was similar for the purified enzyme in E. coli lysate (j3^app˜3×10^−2 s^−1, Table 3, FIG. 21). The apparent rate constant of inactivation of GalA by 3MGA was less than 50% higher than for GA (see Table 3).\nInactivation kinetic analyses: GalA inactivation assays were performed by monitoring consumption of 02 using OXYG1 as described in Steady-state kinetic analyses. […] To obtain soluble E. coli lysate containing GalA, 50 mL of culture was suspended in ˜900 μL of 50 mM HEPPS, pH 8.0, 100 mM NaCl. The resuspension was pipetted into a 1.5 mL screw cap tube containing ˜100 μL of 0.1 mm silica sand. Cell were lysed using a Bead Beater rotor (MP Biomedical). Cellular debris and sand were removed by centrifugation. The clarified was removed to a micro centrifuge tube and kept on ice until use.\n(§2) The amount of GalA added to the assay was such that the enzyme was completely inactivated before 10% of either the catecholic substrate or 02 was consumed in the reaction mixture. The partition ratio was calculated using Equation 1 shown above.\n(§3) The apparent apparent rate constant of inactivation during catalytic turnover in air-saturated buffer, j3^app, was determined by fitting Equation 2 to reaction progress curves where St is the substrate concentration at time t. st=(s0−s∞)e^−j^3^app^t+s∞ Equation 2"}, "[4]": {"biological_target": "T1, VanAB (vanillate O-demethylase)", "test": "VanAB steady-state kinetics, O2 consumption (oxygraph)", "experimental": "In evaluating the parameters for VA, 0.4 μM VanA was used to ensure steady-state conditions at low concentrations of VA.\nas §4\nFor VanAB, the standard reaction contained 1 μM VanA, 2 μM Ht-VanB, and 400 μM NADH. […] Stock solutions of the substrates were made in dimethylsulfoxide (DMSO). The final concentration of DMSO in the assay solutions was <1% (v/v). For PcaHG, the standard reaction contained 250 μM PCA. The reaction was initiated by adding 0.1 μM PcaHG. […] The reaction was initiated by adding 0.05 μM GalA."}, "[5]": {"tested_on": "wild-type P. putida KT2440", "test": "Toxicity effects on growth of wild-type strain (OD600)", "format": "cell-based, Pseudomonas putida KT2440", "details": "M9 minimal media, 20 mM glucose", "protocol": "Error bars represent the absolute value of two biological replicates.\nBacterial strains, media, and cultivations: Pseudomonas putida KT2440 (ATCC® 47054) was utilized as the wild-type and base strain for all further engineering. Gene deletion, insertion, or replacements in P. putida KT2440 were performed using the antibiotic/sacB counter-selection method as previously described. Diagnostic colony PCR was performed with MyTaq® HS Red Mix (Bioline, USA) to confirm gene deletion, insertion, or replacement (see Table 3 and Table 8). M9 minimal medium was prepared as 6.78 g/L Na2HPO4, 3 g/L KH2PO4, 0.5 g/L NaCl, 1 g/L NH4Cl, 2 mM MgSO4, 100 μM CaCl2), and 18 μM FeSO4, pH 7.0. […] Sodium formate (Sigma, USA) was used to prepare formate stocks in water. Stocks of syringaldehyde were made in 2% (v/v) DMSO. Glucose at 1 M concentration (Sigma, USA) was prepared in water. All carbon sources were 0.2 μm filtered prior to media addition. KT2440 strains were revived from glycerol stocks in LB medium overnight at 30° C. prior to washing in M9 minimal medium. Washed cells were inoculated to an OD600 of 0.1 in 25 mL of M9 minimal media supplemented with the specified carbon/energy source in 125 mL baffled flasks and incubated at 30° C., 225 rpm in biological duplicate or triplicate, as indicated. In the case of 3MGA, the culture volume was reduced to 10 mL in 50 mL baffled flasks due to the cost of this substrate. […] In the case of formate feeding, cultivations were subsequently pH adjusted to pH 7.1-7.3 with formic acid, which provided an additional 0.13-1.75 mmol of formate. To measure cell growth and quantify metabolites, cultures were sampled by removing 1 mL, measuring OD600 of a 1:10 or 1:100 dilution, centrifuging to pellet the cells, and blanking with the OD600 of the supernatant to account for darkening of some cultures due to oxidation of intermediates.\nIn vivo reactions: Wild-type P. putida KT2440 and engineered strains were cultivated overnight in LB medium and centrifuged. […] Flasks were inoculated to an OD600 of 0.1 and incubated at 30° C., 225 rpm. Cultures were sampled periodically by removing 1 mL that was used to measure the OD600 as well as metabolite analysis (see below). Shake flask experiments were performed in triplicate. In the case of 3-MGA, the culture was downscaled to 10 mL in 50 mL baffled flasks and performed in duplicate."}, "[6]": {"substrate": "O=C(O)c1cc(O)c(O)c(O)c1", "test": "PcaHG steady-state kinetics, oxygraph and spectrophotometric assays", "format": "biochemical, P. putida KT2440", "details": "other: air-saturated HEPES (I = 0.1M), pH 7.5, 25° C", "experimental": "as §4, §5"}, "[7]": {"substrate": "O=C(O)c1cc(O)c(O)c(O)c1", "test": "GalA steady-state kinetics, O2 consumption (oxygraph)", "format": "biochemical, P. putida KT2440", "details": "other: air-saturated 40 mM MOPS, 80 mM NaCl (I = 0.1M, pH 7.0), 30° C", "experimental": "Steady-state kinetic analyses: Kinetic assays were performed by monitoring the consumption of O2 using a Clark-type polarographic O2 electrode OXYG1 (Hansatech) connected to a circulating water bath. […] GalA assays were performed in 40 mM MOPS, 80 mM NaCl (I=0.1 M, pH 7.0) at 30° C. The electrode was calibrated daily according to the manufacturer's instructions using air-saturated buffer and water depleted of 02 via addition of sodium hydrosulfite. Stock solutions were prepared fresh daily. The background rate of O2-consumption was recorded prior to initiating the reaction and was subtracted from the measured reaction rate. Steady-state kinetic parameters were evaluated by fitting the Michaelis-Menten equation to the data using the least-squares fitting of LEONORA.\nStock solutions of the substrates were made in dimethylsulfoxide (DMSO). The final concentration of DMSO in the assay solutions was <1% (v/v). […] The reaction was initiated by adding 0.05 μM GalA."}, "[8]": {"substrate": "COc1cc(C(=O)O)cc(O)c1O", "test": "GalA inactivation kinetic analyses during turnover", "format": "biochemical", "details": "other: calculated from j3^app and partition ratio, MOPS (I = 0.1M, pH 7.0), 30° C", "text": "as §1\nInactivation kinetic analyses: GalA inactivation assays were performed by monitoring consumption of 02 using OXYG1 as described in Steady-state kinetic analyses. […]\nas §2, §3"}}, "data": [{"molecule": "COc1cc(C(=O)O)cc(O)c1O", "note": "[3MGA, 3-O-methylgallate]", "values": [{"measurement": "Coupling Substrate/O2", "setting": "[1]", "value": "1.0 ± 0.1 mol:mol"}, {"measurement": "Coupling Product/O2", "setting": "[1]", "value": "1.1 ± 0.2 mol:mol"}, {"measurement": "cleavage by PcaHG", "setting": "[2]; oxygraph and spectrophotometric assays", "value": "did not detectably cleave"}, {"measurement": "apparent rate constant of inactivation of GalA, higher than for GA", "setting": "[3]", "value": "less than 50%"}, {"measurement": "kcat^app relative to that for GA", "setting": "[3]", "value": "~0.025", "unit": "%"}, {"measurement": "partition ratio relative to that for GA", "setting": "[3]", "value": 0.2, "unit": "%"}, {"measurement": "j3^app (apparent rate constant of inactivation during turnover)", "setting": "[3]; air-saturated 40 mM MOPS, 80 mM NaCl (I = 0.1M, pH 7.0), 30° C", "value": "3.8 ± 0.3 ×10^−2 s^−1"}, {"measurement": "Partition Ratio", "setting": "[3]; calculated from the O2 consumption for a given amount of GalA", "value": "3.3 ± 0.6"}, {"measurement": "apparent specificity of VanAB relative to that for VA", "setting": "[4]; O-demethylation", "value": "~1", "unit": "%"}]}, {"molecule": "O=C(O)c1ccc(O)c(O)c1", "note": "[PCA, protocatechuate]", "values": [{"measurement": "specific activity of purified PcaHG", "setting": "[2]", "value": 3.8, "unit": "U/mg"}, {"measurement": "kcat^app", "setting": "[2]; air-saturated HEPES (I = 0.1M), pH 7.5, 25° C", "value": "0.95 ± 0.03", "unit": "s⁻¹"}, {"measurement": "Km", "setting": "[2]; air-saturated HEPES (I = 0.1M), pH 7.5, 25° C, read-out: KM^app", "value": "33 ± 2", "unit": "µM"}]}, {"molecule": "COc1cc(C(=O)O)cc(OC)c1O", "note": "[SA, syringate]", "values": [{"measurement": "toxicity to P. putida KT2440 compared with VA", "setting": "[5]", "value": "more toxic"}, {"measurement": "growth at 120 mM substrate", "setting": "[5]", "value": "able to grow"}]}, {"molecule": "COc1cc(C=O)cc(OC)c1O", "note": "[SAL, syringaldehyde]", "values": [{"measurement": "toxicity to P. putida KT2440 compared with VA", "setting": "[5]", "value": "more toxic"}]}, {"molecule": "COc1cc(C(=O)O)ccc1O", "note": "[VA, vanillate]", "values": [{"measurement": "Coupling Substrate/O2", "setting": "[1]", "value": "1.3 ± 0.2 mol:mol"}, {"measurement": "Coupling Product/O2", "setting": "[1]", "value": "1.1 ± 0.1 mol:mol"}, {"measurement": "growth at 120 mM substrate", "setting": "[5]", "value": "not"}, {"measurement": "apparent specificity of VanAB", "setting": "[4]; 0.4 μM VanA", "value": "~200000", "unit": "s⁻¹ M⁻¹"}]}, {"molecule": "B1", "values": [{"measurement": "Km", "setting": "[6]", "value": "15 ± 2", "unit": "µM"}, {"measurement": "kcat", "setting": "[6]", "value": "0.0675 ± 0.0003", "unit": "s⁻¹"}, {"measurement": "kcat/Km", "setting": "[6]", "value": "0.51 ± 0.06 ×10^4 s^−1 · M^−1"}]}, {"molecule": "B2", "values": [{"measurement": "Km", "setting": "[7]", "value": "59 ± 5", "unit": "µM"}, {"measurement": "kcat", "setting": "[7]", "value": "52 ± 4", "unit": "s⁻¹"}, {"measurement": "kcat/Km", "setting": "[7]", "value": "90 ± 10 ×10^4 s^−1 · M^−1"}, {"measurement": "kcat", "setting": "[8]", "value": "0.012 ± 0.002^d s^−1"}]}]}
